According to patent publication US20260317324A1, “BIFUNCTIONAL COMPOUNDS FOR DEGRADING BRAF VIA UBIQUITIN PROTEOSOME PATHWAY” (Nurix Therapeutics, Inc., priority 2023, published 2026):

Experiments:
Format in all cases: cell-based
BRAF D594G = biological target: T1, BRAF D594G (Homo sapiens, UniProt P15056, D594G); experiment: BRAF HiBiT degradation assay, C-terminal HiBiT-tagged BRAF D594G overexpressed in HCT-116 BRAF−/− cells (clone 63), Nano-Glo HiBiT Lytic assay; conditions: BRAF D594G; for DC50: DC50 at 50%: fitted conc. at Y=50; for Dmax: HCT-116, percentage protein degraded at maximal compound effect relative to DMSO
T1 construct: Horizon Discovery (HCT-116 BRAF−/− cells); host or cells: HCT-116 BRAF−/− cells, clone 63, lentiviral transduction
How it was run: (§1)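 HCT-116 BRAF−/− cells stably expressing the tagged mutant were seeded at 3,000 cells/well and grown 24 h at 37 °C before an 11-point half-log series from 1 μM to 0.01 nM, run in duplicate at 0.2% DMSO. Lytic HiBiT luminescence gave % protein remaining versus DMSO controls; DC50 was the fitted concentration at 50%.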

BRAF V600E = biological target: T2, BRAF V600E (Homo sapiens, UniProt P15056, V600E); experiment: BRAF HiBiT degradation assay, C-terminal HiBiT-tagged BRAF V600E A375 cells (clone 1F10), Nano-Glo HiBiT Lytic assay; conditions: A375 (BRAF V600E); for DC50: DC50 at 50%: fitted conc. at Y=50; for Dmax: A-375, percentage protein degraded at maximal compound effect relative to DMSO
T2 construct: endogenous C-terminal HiBiT fusion tag on BRAF V600E allele; endogenous in cells; host or cells: A375 clone 1F10 (CRISPR-Cas9 knock-in of the HiBiT tag; parental A375 from ATCC)
How it was run: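 A375 cells with CRISPR knock-in C-terminal HiBiT on endogenous BRAF V600E (clone 1F10) were seeded and cultured 24 h at 37 °C, then dosed with an 11-point half-log series (1 μM to 0.01 nM, duplicate, 0.2% DMSO). Lytic HiBiT luminescence gave % protein remaining; DC50 was the fitted concentration at 50%.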

BRAF G469A = biological target: T3, BRAF G469A (Homo sapiens, UniProt P15056, G469A); experiment: BRAF HiBiT degradation assay, C-terminal HiBiT-tagged BRAF G469A overexpressed in HCT-116 BRAF−/− cells (clone 34), Nano-Glo HiBiT Lytic assay; conditions: Class 2, BRAF G469A; for DC50: DC50 at 50%: fitted conc. at Y=50; for Dmax: HCT-116, percentage protein degraded at maximal compound effect relative to DMSO
T3 construct: Horizon Discovery (HCT-116 BRAF−/− cells); host or cells: HCT-116 BRAF−/− cells, clone 34, lentiviral transduction
How it was run: as §1

BRAF G466V = biological target: T4, BRAF G466V (Homo sapiens, UniProt P15056, G466V); experiment: BRAF HiBiT degradation assay, C-terminal HiBiT-tagged BRAF G466V overexpressed in HCT-116 BRAF−/− cells (clone 8), Nano-Glo HiBiT Lytic assay; conditions: BRAF G466V; for DC50: DC50 at 50%: fitted conc. at Y=50; for Dmax: HCT-116, percentage protein degraded at maximal compound effect relative to DMSO
T4 construct: Horizon Discovery (HCT-116 BRAF−/− cells); host or cells: HCT-116 BRAF−/− cells, clone 8, lentiviral transduction
How it was run: as §1

T2 sequence (P15056 whole entry V600E, the tested form may be a part): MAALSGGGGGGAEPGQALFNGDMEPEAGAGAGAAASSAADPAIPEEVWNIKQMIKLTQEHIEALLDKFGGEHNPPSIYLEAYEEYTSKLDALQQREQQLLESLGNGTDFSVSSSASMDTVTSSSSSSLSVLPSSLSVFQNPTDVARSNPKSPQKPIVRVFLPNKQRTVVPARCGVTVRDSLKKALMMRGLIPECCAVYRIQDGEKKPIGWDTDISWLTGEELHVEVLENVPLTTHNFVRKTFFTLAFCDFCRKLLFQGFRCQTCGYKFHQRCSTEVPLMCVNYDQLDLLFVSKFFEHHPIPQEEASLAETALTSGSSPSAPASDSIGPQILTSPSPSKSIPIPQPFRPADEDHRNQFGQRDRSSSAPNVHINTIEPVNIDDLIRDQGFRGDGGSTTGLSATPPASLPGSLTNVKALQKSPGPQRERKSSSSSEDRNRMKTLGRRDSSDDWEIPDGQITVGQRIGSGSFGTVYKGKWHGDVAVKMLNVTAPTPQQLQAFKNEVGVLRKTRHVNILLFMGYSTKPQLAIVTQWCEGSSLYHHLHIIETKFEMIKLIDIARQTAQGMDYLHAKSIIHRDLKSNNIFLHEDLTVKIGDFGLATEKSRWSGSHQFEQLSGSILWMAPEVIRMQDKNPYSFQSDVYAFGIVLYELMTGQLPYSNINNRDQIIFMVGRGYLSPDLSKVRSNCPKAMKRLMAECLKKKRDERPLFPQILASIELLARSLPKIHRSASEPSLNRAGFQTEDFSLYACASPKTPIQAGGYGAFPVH
T4 sequence (P15056 whole entry G466V): as the sequence (P15056 whole entry V600E, the tested form may be a part) above, with G466V, E600V counted along it
T3 sequence (P15056 whole entry G469A): as the sequence (P15056 whole entry V600E, the tested form may be a part) above, with G469A, E600V counted along it
T1 sequence (P15056 whole entry D594G): as the sequence (P15056 whole entry V600E, the tested form may be a part) above, with D594G, E600V counted along it

DC50 (BRAF D594G) [nM] | Dmax (BRAF D594G) [%] | DC50 (BRAF V600E) [nM] | Dmax (BRAF V600E) [%] | DC50 (BRAF G469A) [nM] | Dmax (BRAF G469A) [%] | DC50 (BRAF G466V) [nM] | Dmax (BRAF G466V) [%] | Compound
> 500 | 30 to 70 | < 10 | > 70 | > 500 | < 30 | > 500 | 30 to 70 | CCCS(=O)(=O)Nc1cccc(-c2nc(C(C)(C)C)sc2-c2ccnc(Nc3cnn(C4CCN(CC5CCN(c6ccc7c(=O)n(C8CCC(=O)NC8=O)ccc7c6)CC5)CC4)c3)n2)c1F (racemic) [Compound 80, Rac-N-[3-(2-tert-butyl-5-{2-[(1-f{1-[(1-{2-[(3R)-2,6-dioxopiperidin-3-yl]-1-oxo-1,2-dihydroisoquinolin-6-yl}piperidin-4-yl)methyl]piperidin-4-yl}-1H-pyrazol-4-yl)amino]pyrimidin-4-yl}-1,3-thiazol-4-yl)-2-fluorophenyl]propane-1-sulfonamide]
50 to 500 | < 30 | < 10 | > 70 | 50 to 500 | < 30 | 50 to 500 | < 30 | CCCS(=O)(=O)Nc1cccc(-c2nc(C(C)(C)C)sc2-c2ccnc(Nc3cnn(CC4CCN(CC5CCN(c6ccc7c(=O)n(C8CCC(=O)NC8=O)ccc7c6)CC5)CC4)c3)n2)c1F (racemic) [Compound 83, Rac-N-{3-[2-tert-butyl-5-(2-{[1-({1-[(1-{2-[(3R)-2,6-dioxopiperidin-3-yl]-1-oxo-1,2-dihydroisoquinolin-6-yl}piperidin-4-yl)methyl]piperidin-4-yl}methyl)-1H-pyrazol-4-yl]amino}pyrimidin-4-yl)-1,3-thiazol-4-yl]-2-fluorophenyl}propane-1-sulfonamide]
> 500 | 30 to 70 | 50 to 500 | > 70 | > 500 | < 30 | > 500 | < 30 | CCCS(=O)(=O)Nc1cccc(-c2nc(C(C)(C)C)sc2-c2ccnc(Nc3cnn(CC4CCN(C[C@H]5CC[C@H](Oc6ccc(C7CCC(=O)NC7=O)cc6)CC5)CC4)c3)n2)c1F (mixture of isomers) [Compound 84, N-(3-{2-tert-butyl-5-[2-({1-[(1-{[(1r,4r)-4-{4-[(3RS)-2,6-dioxopiperidin-3-yl]phenoxy}cyclohexyl]methyl}piperidin-4-yl)methyl]-1H-pyrazol-4-yl}amino)pyrimidin-4-yl]-1,3-thiazol-4-yl}-2-fluorophenyl)propane-1-sulfonamide]
> 500 | 30 to 70 | 10 to 50 | 30 to 70 | > 500 | < 30 | > 500 | 30 to 70 | CCCS(=O)(=O)Nc1cccc(-c2nc(C(C)(C)C)sc2-c2ccnc(Nc3ccc4c(c3)CCN(CC3CCN(c5ccc6c(=O)n(C7CCC(=O)NC7=O)ccc6c5)CC3)C4)n2)c1F (racemic) [Compound 85, Rac-N-(3-{2-tert-butyl-5-[2-({2-[(1-{2-[(3R)-2,6-dioxopiperidin-3-yl]-1-oxo-1,2-dihydroisoquinolin-6-yl}piperidin-4-yl)methyl]-1,2,3,4-tetrahydroisoquinolin-6-yl}amino)pyrimidin-4-yl]-1,3-thiazol-4-yl}-2-fluorophenyl)propane-1-sulfonamide]
> 500 | 30 to 70 | 10 to 50 | > 70 | > 500 | 30 to 70 | > 500 | 30 to 70 | CCCS(=O)(=O)Nc1cccc(-c2nc(C(C)(C)C)sc2-c2ccnc(Nc3cccc(OC4CCN(C(=O)CN5CCC(c6ccc(NC7CCC(=O)NC7=O)cc6)CC5)CC4)c3)n2)c1F (racemic) [Compound 96, Rac-N-(3-{2-tert-butyl-5-[2-({3-[(1-{2-[4-(4-{[(3R)-2,6-dioxopiperidin-3-yl]amino}phenyl)piperidin-1-yl]acetyl}piperidin-4-yl)oxy]phenyl}amino)pyrimidin-4-yl]-1,3-thiazol-4-yl}-2-fluorophenyl)propane-1-sulfonamide]
> 500 | 30 to 70 | 10 to 50 | > 70 | > 500 | < 30 | > 500 | 30 to 70 | CCCS(=O)(=O)Nc1cccc(-c2nc(C(C)(C)C)sc2-c2ccnc(Nc3cccc(OC4CCN(C(=O)[C@H]5CC[C@H](Oc6ccc(C7CCC(=O)NC7=O)cn6)CC5)CC4)c3)n2)c1F (mixture of isomers) [Compound 97, N-{3-[2-tert-butyl-5-(2-{[3-({1-[(1r,4r)-4-({5-[(3RS)-2,6-dioxopiperidin-3-yl]pyridin-2-yl}oxy)cyclohexanecarbonyl]piperidin-4-yl}oxy)phenyl]amino}pyrimidin-4-yl)-1,3-thiazol-4-yl]-2-fluorophenyl}propane-1-sulfonamide]
50 to 500 | 30 to 70 | < 10 | > 70 | > 500 | < 30 | > 500 | < 30 | CCCS(=O)(=O)Nc1cccc(-c2nc(C(C)(C)C)sc2-c2ccnc(Nc3cccc(OC4CCN(C(=O)C5CCN(c6cc(C7CCC(=O)NC7=O)ccn6)CC5)CC4)c3)n2)c1F (racemic) [Compound 100, Rac-N-[3-(2-tert-butyl-5-{2-[(3-{[1-(1-{4-[(3R)-2,6-dioxopiperidin-3-yl]pyridin-2-yl}piperidine-4-carbonyl)piperidin-4-yl]oxy}phenyl)amino]pyrimidin-4-yl}-1,3-thiazol-4-yl)-2-fluorophenyl]propane-1-sulfonamide]
> 500 | 30 to 70 | < 10 | > 70 | > 500 | < 30 | > 500 | < 30 | CCCS(=O)(=O)Nc1cccc(-c2nc(C(C)(C)C)sc2-c2ccnc(Nc3cnn(C4CCN(C(=O)CN5CCC(c6ccc(NC7CCC(=O)NC7=O)cc6)CC5)CC4)c3)n2)c1F (racemic) [Compound 108, Rac-N-{3-[2-tert-butyl-5-(2-{[1-(1-{2-[4-(4-{[(3R)-2,6-dioxopiperidin-3-yl]amino}phenyl)piperidin-1-yl]acetyl}piperidin-4-yl)-1H-pyrazol-4-yl]amino}pyrimidin-4-yl)-1,3-thiazol-4-yl]-2-fluorophenyl}propane-1-sulfonamide]
> 500 | < 30 | < 10 | > 70 | > 500 | < 30 | > 500 | < 30 | CCCS(=O)(=O)Nc1cccc(-c2nc(C(C)(C)C)sc2-c2ccnc(Nc3cnn(C4CCN(C(=O)[C@H]5CC[C@H](Oc6ccc(C7CCC(=O)NC7=O)cn6)CC5)CC4)c3)n2)c1F (mixture of isomers) [Compound 109, N-[3-(2-tert-butyl-5-{2-[(1-{1-[(1r,4r)-4-({5-[(3RS)-2,6-dioxopiperidin-3-yl]pyridin-2-yl}oxy)cyclohexanecarbonyl]piperidin-4-yl}-1H-pyrazol-4-yl)amino]pyrimidin-4-yl}-1,3-thiazol-4-yl)-2-fluorophenyl]propane-1-sulfonamide]
> 500 | < 30 | < 10 | 30 to 70 | > 500 | < 30 | > 500 | < 30 | CCCS(=O)(=O)Nc1cccc(-c2nc(C(C)(C)C)sc2-c2ccnc(Nc3cnn(C4CCN(C(=O)[C@H]5CC[C@H](Oc6ccc(C7CCC(=O)NC7=O)cc6)CC5)CC4)c3)n2)c1F (mixture of isomers) [Compound 110, N-[3-(2-tert-butyl-5-{2-[(1-{1-[(1r,4r)-4-{4-[(3RS)-2,6-dioxopiperidin-3-yl]phenoxy}cyclohexanecarbonyl]piperidin-4-yl}-1H-pyrazol-4-yl)amino]pyrimidin-4-yl}-1,3-thiazol-4-yl)-2-fluorophenyl]propane-1-sulfonamide]
> 500 | < 30 | 10 to 50 | > 70 | > 500 | < 30 | > 500 | 30 to 70 | CCCS(=O)(=O)Nc1cccc(-c2nc(C(C)(C)C)sc2-c2ccnc(Nc3cnn(CC4CCN(C(=O)CN5CCC(c6ccc(NC7CCC(=O)NC7=O)cc6)CC5)CC4)c3)n2)c1F (racemic) [Compound 116, Rac-N-(3-{2-tert-butyl-5-[2-({1-[(1-{2-[4-(4-{[(3R)-2,6-dioxopiperidin-3-yl]amino}phenyl)piperidin-1-yl]acetyl}piperidin-4-yl)methyl]-1H-pyrazol-4-yl}amino)pyrimidin-4-yl]-1,3-thiazol-4-yl}-2-fluorophenyl)propane-1-sulfonamide]
